Experimental data from patent US8796001B2, “Metalloenzyme inhibitor compounds” (Viamet Pharmaceuticals, Inc., priority 2011, dated 2014).

system: Puccinia recondita tritici = Puccinia triticina (PUCCRT); assay: Fungicidal activity vs. leaf rust on wheat plants; assay type: in vivo; conditions: wheat (Yuma) sprayed at 50 ppm, inoculated the following day, rated 7-9 days later, read-out: Puccinia Rating (% Disease Control @ 50 ppm)
Excerpt: D. Evaluation of Fungicidal Activity vs. Leaf Rust (Causal Agent Puccinia Recondita Tritici=Puccinia Triticina; Bayer Code PUCCRT)
Each pot contained 3-8 seedlings. These plants were sprayed until wet with the formulated test compounds. The compounds were formulated at 50 ppm in 10 vol. % acetone plus 90 vol. % Triton X water (deionized water 99.99 wt %+0.01 wt % Triton X100), giving a “formulated test compound.” Formulated test compounds were applied to plants using a turn table sprayer fitted with two opposing air atomization nozzles which delivered approximately 1500 L/ha of spray volume. On the following day, the leaves were inoculated with an aqueous spore suspension of Puccinia recondita tritici and the plants were kept in high humidity overnight to permit spores to germinate and infect the leaf. The plants were then transferred to a greenhouse until disease developed on untreated control plants. Disease severity was evaluated 7-9 days later, depending on the speed of disease development.
In each case of Table 3, the Puccinia rating scale is as follows: […]

Row | Compound | pest or weed control at 50 ppm [%]
1 | OC(Cn1cnnn1)(c1ccc(F)cc1F)C(F)(F)c1ccc(Oc2ncccn2)cn1 (stereo not shown) [Compound 97, 2-(2,4-difluorophenyl)-1,1-difluoro-1-(5-(pyrimidin-2-yloxy)pyridin-2-yl)-3-(1H-tetrazol-1-yl)propan-2-ol] | 80 to 100
2 | OC(Cn1cnnn1)(c1ccc(F)cc1F)C(F)(F)c1ccc(Oc2ncc(Cl)cn2)cn1 (stereo not shown) [Compound 98, 1-(5-((5-chloropyrimidin-2-yl)oxy)pyridin-2-yl)-2-(2,4-difluorophenyl)-1,1-difluoro-3-(1H-tetrazol-1-yl)propan-2-ol] | 80 to 100
3 | OC(Cn1cnnn1)(c1ccc(F)cc1F)C(F)(F)c1ccc(Oc2ncc(Br)cn2)cn1 (stereo not shown) [Compound 99, 1-(5-((5-bromopyrimidin-2-yl)oxy)pyridin-2-yl)-2-(2,4-difluorophenyl)-1,1-difluoro-3-(1H-tetrazol-1-yl)propan-2-ol] | 80 to 100
4 | N#Cc1ncc(Oc2ccc(C(F)(F)C(O)(Cn3cnnn3)c3ccc(F)cc3F)nc2)cn1 (stereo not shown) [Compound 100, 5-((6-(2-(2,4-difluorophenyl)-1,1-difluoro-2-hydroxy-3-(1H-tetrazol-1-yl)propyl)pyridin-3-yl)oxy)pyrimidine-2-carbonitrile] | 60 to 79
5 | O=Cc1ccc(Oc2ccc(C(F)(F)C(O)(Cn3cnnn3)c3ccc(F)cc3F)nc2)nc1 (stereo not shown) [Compound 101, 6-((6-(2-(2,4-difluorophenyl)-1,1-difluoro-2-hydroxy-3-(1H-tetrazol-1-yl)propyl)pyridin-3-yl)oxy)nicotinaldehyde] | < 40
6 | CO/N=C/c1ccc(Oc2ccc(C(F)(F)C(O)(Cn3cnnn3)c3ccc(F)cc3F)nc2)nc1 (stereo not shown) [Compound 102, (E)-6-((6-(2-(2,4-difluorophenyl)-1,1-difluoro-2-hydroxy-3-(1H-tetrazol-1-yl)propyl)pyridin-3-yl)oxy)nicotinaldehyde O-methyl oxime] | 80 to 100
7 | OC(Cn1cnnn1)(c1ccc(F)cc1F)C(F)(F)c1ccc(Oc2ccc(/C=N/OCc3ccccc3)cn2)cn1 (stereo not shown) [Compound 103, (E)-6-((6-(2-(2,4-difluorophenyl)-1,1-difluoro-2-hydroxy-3-(1H-tetrazol-1-yl)propyl)pyridin-3-yl)oxy)nicotinaldehyde O-benzyl oxime] | 60 to 79
8 | OC(Cn1cnnn1)(c1ccc(F)cc1F)C(F)(F)c1ccc(Oc2ncc(C(F)(F)F)cc2F)cn1 (stereo not shown) [Compound 104, 2-(2,4-difluorophenyl)-1,1-difluoro-1-(5-((3-fluoro-5-(trifluoromethyl)pyridin-2-yl)oxy)pyridin-2-yl)-3-(1H-tetrazol-1-yl)propan-2-ol] | 80 to 100
9 | OC(Cn1cnnn1)(c1ccc(F)cc1F)C(F)(F)c1ccc(Oc2ncc(C(F)(F)F)cn2)cn1 (stereo not shown) [Compound 105, 2-(2,4-difluorophenyl)-1,1-difluoro-3-(1H-tetrazol-1-yl)-1-(5-((5-(trifluoromethyl)pyrimidin-2-yl)oxy)pyridin-2-yl)propan-2-ol] | 80 to 100
10 | OC(Cn1cnnn1)(c1ccc(F)cc1F)C(F)(F)c1ccc(Oc2ccc(Br)cn2)cn1 (stereo not shown) [Compound 106, 1-(5-((5-bromopyridin-2-yl)oxy)pyridin-2-yl)-2-(2,4-difluorophenyl)-1,1-difluoro-3-(1H-tetrazol-1-yl)propan-2-ol] | 80 to 100
11 | N#Cc1cnc(Oc2ccc(C(F)(F)C(O)(Cn3cnnn3)c3ccc(F)cc3F)nc2)s1 (stereo not shown) [Compound 107, 2-((6-(2-(2,4-difluorophenyl)-1,1-difluoro-2-hydroxy-3-(1H-tetrazol-1-yl)propyl)pyridin-3-yl)oxy)thiazole-5-carbonitrile] | < 40
12 | OC(Cn1cnnn1)(c1ccc(F)cc1F)C(F)(F)c1ccc(OCc2ccc(Cl)cn2)cn1 (stereo not shown) [Compound 113, 1-(5-((5-chloropyridin-2-yl)methoxy)pyridin-2-yl)-2-(2,4-difluorophenyl)-1,1-difluoro-3-(1H-tetrazol-1-yl)propan-2-ol] | 80 to 100
13 | OC(Cn1cnnn1)(c1ccc(F)cc1F)C(F)(F)c1ccc(OCc2ccc(C(F)(F)F)cn2)cn1 (stereo not shown) [Compound 114, 2-(2,4-difluorophenyl)-1,1-difluoro-3-(1H-tetrazol-1-yl)-1-(5-((5-(trifluoromethyl)pyridin-2-yl)methoxy)pyridin-2-yl)propan-2-ol] | 80 to 100
14 | OC(Cn1cnnn1)(c1ccc(F)cc1F)C(F)(F)c1ccc(OCc2ccc(C(F)(F)F)nc2)cn1 (stereo not shown) [Compound 115, 2-(2,4-difluorophenyl)-1,1-difluoro-3-(1H-tetrazol-1-yl)-1-(5-((6-(trifluoromethyl)pyridin-3-yl)methoxy)pyridin-2-yl)propan-2-ol] | 80 to 100
15 | OC(Cn1cnnn1)(c1ccc(F)cc1F)C(F)(F)c1ccc(OCc2ccc(Cl)nc2)cn1 (stereo not shown) [Compound 116, 1-(5-((6-chloropyridin-3-yl)methoxy)pyridin-2-yl)-2-(2,4-difluorophenyl)-1,1-difluoro-3-(1H-tetrazol-1-yl)propan-2-ol] | 80 to 100
16 | OC(Cn1cnnn1)(c1ccc(F)cc1F)C(F)(F)c1ccc(OCc2ccnc(Cl)c2)cn1 (stereo not shown) [Compound 117, 1-(5-((2-chloropyridin-4-yl)methoxy)pyridin-2-yl)-2-(2,4-difluorophenyl)-1,1-difluoro-3-(1H-tetrazol-1-yl)propan-2-ol] | 80 to 100
17 | OC(Cn1cnnn1)(c1ccc(F)cc1F)C(F)(F)c1ccc(OCc2ccncc2)cn1 (stereo not shown) [Compound 118, 2-(2,4-difluorophenyl)-1,1-difluoro-1-(5-(pyridin-4-ylmethoxy)pyridin-2-yl)-3-(1H-tetrazol-1-yl)propan-2-ol] | < 40
18 | OC(Cn1cnnn1)(c1ccc(F)cc1F)C(F)(F)c1ccc(OCC(F)(F)c2ccccc2)cn1 (stereo not shown) [Compound 119, 1-(5-(2,2-difluoro-2-phenylethoxy)pyridin-2-yl)-2-(2,4-difluorophenyl)-1,1-difluoro-3-(1H-tetrazol-1-yl)propan-2-ol] | 80 to 100
19 | OC(Cn1cnnn1)(c1ccc(F)cc1F)C(F)(F)c1ccc(OCC(F)(F)c2ccc(OC(F)F)cc2)cn1 (stereo not shown) [Compound 120, 1-(5-(2-(4-(difluoromethoxy)phenyl)-2,2-difluoroethoxy)pyridin-2-yl)-2-(2,4-difluorophenyl)-1,1-difluoro-3-(1H-tetrazol-1-yl)propan-2-ol] | 80 to 100
20 | N#Cc1ccc(C(F)(F)COc2ccc(C(F)(F)C(O)(Cn3cnnn3)c3ccc(F)cc3F)nc2)cc1 (stereo not shown) [Compound 121, 4-(2-((6-(2-(2,4-difluorophenyl)-1,1-difluoro-2-hydroxy-3-(1H-tetrazol-1-yl)propyl)pyridin-3-yl)oxy)-1,1-difluoroethyl)benzonitrile] | 80 to 100
21 | OC(Cn1cnnn1)(c1ccc(F)cc1F)C(F)(F)c1ccc(OCC(F)(F)c2ccc(Cl)cc2)cn1 (stereo not shown) [Compound 122, 1-(5-(2-(4-chlorophenyl)-2,2-difluoroethoxy)pyridin-2-yl)-2-(2,4-difluorophenyl)-1,1-difluoro-3-(1H-tetrazol-1-yl)propan-2-ol] | 80 to 100
22 | OC(Cn1cnnn1)(c1ccc(F)cc1F)C(F)(F)c1ccc(OCC(F)c2ccccc2)cn1 (stereo not shown) [Compound 123, 2-(2,4-difluorophenyl)-1,1-difluoro-1-(5-(2-fluoro-2-phenylethoxy)pyridin-2-yl)-3-(1H-tetrazol-1-yl)propan-2-ol] | 80 to 100
